In US10119168B2, “Methods for the treatment of kidney fibrosis” (priority 2014, dated 2018):

System: mouse kidney
Assay: RNA-seq of kidney gene expression over time in FA nephropathy progression (Table 1)
Assay type: in vivo
Source text: Identification of Candidate Genes for Biomarkers of Kidney Fibrosis Through RNA-Seq. […] To select genes that are indicative of fibrosis candidates were considered from this later group that had robust upregulation (>5-fold with >100 read counts at peak) over time as fibrosis progresses. Another important criteria was the location of the protein product of the gene, either in extracellular matrix or transmembrane, to increase the chance of detecting it in the urine and use it as a biomarker(11).
(§1) RNA samples (n=3 mice/time point) were sequenced at the Bioplymers Facility at the Harvard Medical School. Libraries were prepared from 10 ng total RNA per sample using the IntegenX Apollo 324 system and NuGEN SPIA reagents. Libraries were multiplexed in groups of three per lane of a flowcell and 50 cycle, paired-end sequencing was performed on an Illumina HiSeq2000 instrument. Illumina sequence quality was surveyed with FastQC (available on the world wide web at bioinformatics.babraham.ac.uk/projects/fastqc/) to ensure suitability of library generation and sequencing for further analysis. Adapters and lower quality bases were trimmed with Cutadapt (available on the world wide web at code.google.com/p/cutadapt/), using a Phred quality cutoff of 20, and reassessed with FastQC. Trimmed reads were aligned to the Ensembl NCBIM37 Mus musculus genome build with TopHat2. Aligned reads were summarized at the gene level against the Illumina iGenomes (available on the world wide web at tophat.cbcb.umd.edu/igenomes.html) NCBIM37 Mus musculus gene annotations using HTSeq (available on the world wide web at huber.embl.de/users/anders/HTSeq/doc/overview.html). […] The full dataset is available in the NCBI GEO database with the accession number GSE65267. Raw data is accessible on the world wide web at ncbi.nlm.nih.gov/geo/query/acc.cgi?acc=GSE65267.
Mice were sacrificed at 1, 2, 3, 7 and 14 days following administration. […] All mice were sacrificed at 14 days.
as §1, with “The quantity and quality of mRNA” for “RNA samples (n=3 mice/time point)”, “assayed on an Agilent 2200 TapeStation instrument and by SYBR qPCR assay.” for “sequenced at the Bioplymers Facility at the Harvard Medical School.”, “(https://code.google.com/p/cutadapt/),” for “(available on the world wide web at code.google.com/p/cutadapt/),”

Nc1nc2ncc(CNc3ccc(C(=O)N[C@@H](CCC(=O)O)C(=O)O)cc3)nc2c(=O)[nH]1 [FA, folic acid]
Sycn mean fold change from normal (Day 3): 0.07 fold | Synpr mean fold change from normal (Day 3): 0.01 fold | Sytl2 mean fold change from normal (Day 3): 8.20 fold | Tagln2 mean fold change from normal (Day 3): 4.86 fold | Tbx10 mean fold change from normal (Day 3): 0.08 fold | Timd2 mean fold change from normal (Day 3): 1.47 fold | Timp1 mean fold change from normal (Day 3): 60.56 fold | Tlr2 mean fold change from normal (Day 3): 34.62 fold | Tmem25 mean fold change from normal (Day 3): 0.39 fold | Tmem26 mean fold change from normal (Day 3): 0.16 fold | Tmem207 mean fold change from normal (Day 3): 0.14 fold | Tmsb10 mean fold change from normal (Day 3): 9.84 fold | Tnc mean fold change from normal (Day 3): 9.00 fold | Tnfaip3 mean fold change from normal (Day 3): 6.38 fold | Tnfrsf23 mean fold change from normal (Day 3): 5.65 fold | Top2a mean fold change from normal (Day 3): 10.49 fold | Tpx2 mean fold change from normal (Day 3): 7.65 fold | Tril mean fold change from normal (Day 3): 0.69 fold | Tsc22d1 mean fold change from normal (Day 3): 4.34 fold | Ttc36 mean fold change from normal (Day 3): 0.34 fold | Ttr mean fold change from normal (Day 3): 0.15 fold | Tyrobp mean fold change from normal (Day 3): 4.90 fold | Ugt3a1 mean fold change from normal (Day 3): 0.17 fold | Uhrf1 mean fold change from normal (Day 3): 12.11 fold | Upp2 mean fold change from normal (Day 3): 0.21 fold | Vcam1 mean fold change from normal (Day 3): 121.91 fold | Vill mean fold change from normal (Day 3): 0.18 fold | Vmn1r18 mean fold change from normal (Day 3): 0.14 fold | Vmn1r19 mean fold change from normal (Day 3): 0.52 fold | Vmn1r20 mean fold change from normal (Day 3): 0.31 fold | Vmn1r-ps11 mean fold change from normal (Day 3): 0.73 fold | Vstm2a mean fold change from normal (Day 3): 0.04 fold | Vtcn1 mean fold change from normal (Day 3): 28.37 fold | Vwce mean fold change from normal (Day 3): 0.42 fold | Wfdc15b mean fold change from normal (Day 3): 0.06 fold | Ybx2 mean fold change from normal (Day 3): 0.18 fold | 7SK RNA mean fold change from normal (Day 7): 0.08 fold | 2310042D19Rik mean fold change from normal (Day 7): 0.46 fold | 4930533I22Rik mean fold change from normal (Day 7): 0.25 fold | 4933417A18Rik mean fold change from normal (Day 7): 0.41 fold | 8430408G22Rik mean fold change from normal (Day 7): 1.23 fold | 9030619P08Rik mean fold change from normal (Day 7): 0.03 fold | Slc2a5 mean fold change from normal (Day 7): 0.25 fold | Slc4a1 mean fold change from normal (Day 7): 0.35 fold | Slc5a4a mean fold change from normal (Day 7): 0.17 fold | Slc5a12 mean fold change from normal (Day 7): 0.35 fold | Slc6a12 mean fold change from normal (Day 7): 0.12 fold | Slc7a13 mean fold change from normal (Day 7): 0.10 fold | Slc28a1 mean fold change from normal (Day 7): 0.44 fold | Slc34a1 mean fold change from normal (Day 7): 0.30 fold | Slc34a2 mean fold change from normal (Day 7): 7.02 fold | Slc34a3 mean fold change from normal (Day 7): 0.20 fold | Slc46a3 mean fold change from normal (Day 7): 0.31 fold | Slco1a1 mean fold change from normal (Day 7): 0.12 fold | Smoc2 mean fold change from normal (Day 7): 4.22 fold | Smpdl3b mean fold change from normal (Day 7): 38.83 fold | Snx31 mean fold change from normal (Day 7): 0.07 fold | Socs1 mean fold change from normal (Day 7): 34.95 fold | Sox4 mean fold change from normal (Day 7): 11.09 fold | Sox9 mean fold change from normal (Day 7): 30.72 fold | Spaca7 mean fold change from normal (Day 7): 30.89 fold | Spink6 mean fold change from normal (Day 7): 5.47 fold | Spp1 mean fold change from normal (Day 7): 37.70 fold | Spred3 mean fold change from normal (Day 7): 3.82 fold | Spsb1 mean fold change from normal (Day 7): 8.93 fold | Spt1c3 mean fold change from normal (Day 7): 1.25 fold | St8sia2 mean fold change from normal (Day 7): 26.47 fold | Stil mean fold change from normal (Day 7): 3.57 fold | Stk32a mean fold change from normal (Day 7): 2.72 fold | Stra6 mean fold change from normal (Day 7): 22.31 fold | Susd2 mean fold change from normal (Day 7): 0.28 fold | Sycn mean fold change from normal (Day 7): 0.07 fold | Synpr mean fold change from normal (Day 7): 0.01 fold | Sytl2 mean fold change from normal (Day 7): 11.81 fold | Tagln2 mean fold change from normal (Day 7): 4.01 fold | Tbx10 mean fold change from normal (Day 7): 0.03 fold | Timd2 mean fold change from normal (Day 7): 0.68 fold | Timp1 mean fold change from normal (Day 7): 67.32 fold | Tlr2 mean fold change from normal (Day 7): 15.78 fold | Tmem25 mean fold change from normal (Day 7): 0.53 fold | Tmem26 mean fold change from normal (Day 7): 0.16 fold | Tmem207 mean fold change from normal (Day 7): 0.35 fold | Tmsb10 mean fold change from normal (Day 7): 9.28 fold | Tnc mean fold change from normal (Day 7): 16.74 fold | Tnfaip3 mean fold change from normal (Day 7): 8.79 fold | Tnfrsf23 mean fold change from normal (Day 7): 2.21 fold | Top2a mean fold change from normal (Day 7): 5.58 fold | Tpx2 mean fold change from normal (Day 7): 2.93 fold | Tril mean fold change from normal (Day 7): 2.07 fold
